Target: T1, human 5-hydroxytryptamine-2C (h5-HT2C) receptor (Homo sapiens, UniProt P28335)
T1 construct: expressed in transfected cells; host or cells: CHO (Chinese Hamster Ovary) cells; membrane preparation
T1 sequence (P28335 33-458): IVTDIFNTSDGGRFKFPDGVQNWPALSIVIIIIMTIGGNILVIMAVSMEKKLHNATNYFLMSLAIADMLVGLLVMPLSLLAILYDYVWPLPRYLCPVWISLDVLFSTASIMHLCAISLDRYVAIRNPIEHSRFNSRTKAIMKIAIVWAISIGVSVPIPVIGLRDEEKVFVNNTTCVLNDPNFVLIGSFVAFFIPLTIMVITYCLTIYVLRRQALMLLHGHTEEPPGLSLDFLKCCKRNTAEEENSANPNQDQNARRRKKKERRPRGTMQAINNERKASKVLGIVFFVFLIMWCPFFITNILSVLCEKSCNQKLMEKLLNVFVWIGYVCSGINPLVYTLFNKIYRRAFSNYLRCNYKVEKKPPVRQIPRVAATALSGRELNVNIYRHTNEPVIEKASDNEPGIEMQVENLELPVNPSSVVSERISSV
Test: [125I]DOI radioligand binding to membranes of CHO cells expressing the h5-HT2C receptor

| SMILES | Kd (read-out: dissociation constant, KD of [125I] DOI, saturation binding with increasing concentrations of [125I]DOI) | Ki (displacement of [125I]DOI, CHO cell membranes, room temperature 60 min, read-out: Ki (95% confidence interval)) |
| --- | --- | --- |
| COc1cc(CC(C)N)c(OC)cc1I (centres unmarked) [[^125I] DOI] | 0.4 nM |  |
| CSc1ccc2c(c1)C(N1CCN(C)CC1)Cc1ccccc1S2 (centres unmarked) [Methiothepin] |  | 4.6 nM |

From patent US20060258739A1, “Dihydrobenzofuran derivatives and uses therof” (Wyeth, priority 2005, published 2006)
